What was measured:
HMLER-FOXC2 cells [1] = experiment: Mammosphere assay, HMLER-FOXC2; type: cell-based, human; details: HMLER-FOXC2, 1000 cells, sunitinib 10 μM, 7 days
Description: (§1) FIG. 7: Sunitinib inhibits the growth and metastasis of FOXC2-expressing tumors. FIG. 7A: Quantification of HMLER-Vector and HMLER-FOXC2 cell viability in the presence of sunitinib (10 μM) relative to vehicle (DMSO). N=3; error bars indicate SEM. *P<0.05. FIG. 7B: In vitro quantification of mammospheres formed by 1000 HMLER-FOXC2 and HMLER-Snail cells in the presence of sunitinib (10 μM) or DMSO. N=3; error bars indicate SEM. *P<0.05. FIG. 7C: Tumor volume of HMLER-FOXC2 cells injected into the mammary fat pad of NOD/SCID mice and treated with 40 mg/kg of sunitinib or vehicle (N=9) daily for the indicated number of days. Top line represents Vehicle; bottom line represents Sunitinib. […] FIGS. 7E and F: Thirty days following initiation of sunitinib or vehicle treatment, mice were euthanized and the organs, lung (FIG. 7E) and brain (FIG. 7F), were dissected and analyzed for metastatic tumor burden using bioluminescence imaging. The luminescent signal of tumor cells is represented as the total photon flux detected in each organ from individual mice with the bar indicating the average. ***P<0.001, **P<0.05 compared to the vehicle control group.
(§2) Mammosphere cultures were performed as described (Dontu et al., 2003), with the exception that culture medium contained 1% methylcellulose to reduce cell aggregation (Mani et al., 2008). […] Spheres were quantified after 7 days.

[2] = system: HMLE-Snail and SUM159 cells expressing shControl or shFOXC2; experiment: Mammosphere assay, cells expressing endogenous FOXC2; type: cell-based, human; details: cells expressing endogenous FOXC2 (shControl) versus shFOXC2, 1000 cells seeded, 7 days
Description: (§3) FIGS. 12A and B: Quantification of HMLE-Snail (FIG. 12A) and SUM159 (FIG. 12B) cell viability expressing either shControl or shFOXC2, following culture for 96 hours in increasing concentrations of sunitinib. Cell viability was assessed using an MTS assay. Top lines represent shFOXC2; bottom lines represent shControl. FIG. 12C: In vitro quantification of mammospheres formed by cells described above grown in the presence of sunitinib. Data represents the number of mammospheres formed per 1000 cells seeded after 7 days of culture. For each cell type, the left column represents Vehicle and the right column represents Sunitinib. Error bars indicate SEM. *P<0.05.
Mammosphere cultures were performed as described (Dontu et al., 2003), with the exception that culture medium contained 1% methylcellulose to reduce cell aggregation (Mani et al., 2008). One thousand cells were plated per well into 96-well plates and cultured for 7-10 days, with fresh medium replaced every 3 days. Following incubation, mammospheres were photographed and spheres with a diameter greater than 75 μm were counted. To test the effects of sunitinib, 1000 cells were plated in 96-well low attachment plate in 100 μl mammosphere media. At 24 hours and 96 hours, 100 μl of mammosphere media containing 10 μM sunitinib or vehicle control (DMSO) was added to each well. Spheres were quantified after 7 days.

HMLER-FOXC2 cells [3] = experiment: Cell growth in monolayer cultures with sunitinib, HMLER-FOXC2; type: cell-based, human; details: sunitinib 10 μM (FIG. 7A), method says 2.5 μM, six days
Description: as §1
To determine the effects of sunitinib on cell growth, 2×10^5 cells were plated in a 6-well tissues culture dish. […] On the sixth day of treatment, viable cells per well was quantified using a Beckman-Coulter Vi-Cell Viability Analyzer.

[4] = system: HMLE-Snail and SUM159 cells expressing shControl or shFOXC2; experiment: MTS cell viability assay, cells expressing endogenous FOXC2; type: cell-based, human; details: cells expressing endogenous FOXC2 (shControl) versus shFOXC2, 96 hours, increasing concentrations
Description: as §3

HMLER-FOXC2 tumors = experiment: Orthotopic HMLER-FOXC2 xenograft in the mammary fat-pad; type: in vivo, NOD/SCID mice
Description: FIG. 7: Sunitinib inhibits the growth and metastasis of FOXC2-expressing tumors. FIG. 7A: Quantification of HMLER-Vector and HMLER-FOXC2 cell viability in the presence of sunitinib (10 μM) relative to vehicle (DMSO). N=3; error bars indicate SEM. *P<0.05. FIG. 7B: In vitro quantification of mammospheres formed by 1000 HMLER-FOXC2 and HMLER-Snail cells in the presence of sunitinib (10 μM) or DMSO. N=3; error bars indicate SEM. *P<0.05. FIG. 7C: Tumor volume of HMLER-FOXC2 cells injected into the mammary fat pad of NOD/SCID mice and treated with 40 mg/kg of sunitinib or vehicle (N=9) daily for the indicated number of days. Top line represents Vehicle; bottom line represents Sunitinib. FIG. 7D: Event-free survival of mice with orthotopic HMLER-FOXC2 xenografts treated daily with sunitinib (40 mg/kg, N=7) or vehicle (N=10). Mice were euthanized once tumors reached 1.5 cm^3. Bottom line represents Vehicle; top line represents Sunitinib. FIGS. 7E and F: Thirty days following initiation of sunitinib or vehicle treatment, mice were euthanized and the organs, lung (FIG. 7E) and brain (FIG. 7F), were dissected and analyzed for metastatic tumor burden using bioluminescence imaging. The luminescent signal of tumor cells is represented as the total photon flux detected in each organ from individual mice with the bar indicating the average. ***P<0.001, **P<0.05 compared to the vehicle control group.
To ascertain the effects of sunitinib on HMLER-FOXC2 tumor growth and animal survival, 1×10^6 firefly luciferase-labeled HMLER-FOXC2 cells were injected into the mammary fat-pad of NOD/SCID mice as described above. After 24 hours, the mice were treated 5 days a week with 40 mg/kg sunitinib or vehicle (n=9) by oral gavage. Animals were sacrificed once the tumors reached 1.5 cm^3 or 30 days following injection and the dissected organs were immediately analyzed for luciferase activity.

HMLER-Snail cells = experiment: Mammosphere assay, HMLER-Snail; type: cell-based, human; details: 1000 cells, sunitinib 10 μM, 7 days
Description: as §1, §2

Q: `CCN(CC)CCNC(=O)c1c(C)[nH]c(/C=C2\C(=O)Nc3ccc(F)cc32)c1C` [sunitinib] was tested. Which “decrease of mammosphere formation compared to vehicle (DMSO) treated cells” value (HMLER-FOXC2 cells [1]) did it give?
A: > 8 fold

Q: What about the “sensitivity to sunitinib by reduction in mammosphere formation” value [2] of the same compound?
A: increased sensitivity

Q: What about the “cell growth (cell viability relative to vehicle DMSO)” value (HMLER-FOXC2 cells [3]) of the same compound?
A: specifically inhibit the cell growth

Q: And the “sensitivity to sunitinib by MTS assay” value [4]?
A: increased sensitivity

Q: And the “primary tumor growth (tumor volume)” value (HMLER-FOXC2 tumors; 40 mg/kg sunitinib by oral gavage versus vehicle, NOD/SCID mice)?
A: reduced primary tumor growth

Q: What about the “metastatic burden in brain (photon counts, bioluminescence)” value (HMLER-FOXC2 tumors; 40 mg/kg sunitinib oral versus vehicle, thirty days after start of treatment, dissected brain) of the same compound?
A: significantly reduced metastatic burden

Q: What about the “metastatic burden in lungs (photon counts, bioluminescence)” value (HMLER-FOXC2 tumors; 40 mg/kg sunitinib oral versus vehicle, thirty days after start of treatment, dissected lungs) of the same compound?
A: significantly reduced metastatic burden

Q: And the event-free survival (HMLER-FOXC2 tumors; 40 mg/kg sunitinib oral versus vehicle, mice euthanized once tumors reached 1.5 cm^3)?
A: extended event-free survival

Q: What about the “decrease of mammosphere formation compared to vehicle (DMSO) treated cells” value (HMLER-Snail cells) of the same compound?
A: > 20 fold

Reference: patent US20140275201A1, “IDENTIFICATION OF CANCER STEM CELL MARKERS AND USE OF […] TO TREAT CANCER” (BOARD OF REGENTS, THE UNIVERSITY OF TEXAS SYSTEM, priority 2013, published 2014)
